For one assay, the system named is SKOV-3 cells. Kind of assay: MTT cell viability assay, SKOV-3. The class given is cell-based, human. To be noted: SKOV-3, MTT; for IC50: Homo sapiens. How it is done:
(§1) Metastatic ovarian adenocarcinoma (SKOV-3) and normal Chinese hamster ovary (CHO) cell lines were originally obtained from the American Type Culture Collection (ATCC; Manassas, VA). SKOV-3 cells were cultured in McCoy’s 5A medium and CHO cells were cultured in F12K medium. A human periodontal ligament fibroblast cell line was purchased from Lonza, USA and maintained in stroma cell basal medium. T1074 (normal immortalized human ovarian surface epithelial cell line) was originally purchased from Applied Biological Materials (abm®) Canada and cultured in Prigrow 1 medium.
(§2) The inhibitory effects of artonin E and two positive controls paclitaxel and carboplatin were examined by MTT assay. Cells at a density of 5×10^3cells/well were placed in a 96-well plate and left for 24 h to attach. The attached cells were exposed to artonin E, paclitaxel, and carboplatin at different concentrations and incubated for 24, 48, and 72 h. Subsequently, 20 μL of 5 mg/mL MTT solution was added after drug treatment and the resulting mixture was incubated for 4 h to form purple formazan. Afterward, 100 μL of dimethyl sulfoxide (DMSO) was transferred into each well to dissolve the purple formazan, and results were measured using a microplate reader (Tecan Infinite M 200 PRO, Männedorf, Switzerland) at an absorbance of 570 nm. The half-maximal concentrations that caused cell growth inhibition (IC50 values) were obtained from the MTT viability growth curve.
A general note: Tetrazolium dyes change colour on reduction, which living cells bring about.

For the next assay, the system named is T1074 cells. The assay is described as follows: MTT cell viability assay, T1074. Format: cell-based, human. To be noted: for IC50: Homo sapiens. How it is done: as §1, §2

The results in this text go back to publication PMC4809498, “Artonin E Induces Apoptosis via Mitochondrial Dysregulation in SKOV-3 Ovarian Cancer Cells” (PLoS ONE, 2016).

In brackets after ≈: the same amount, converted by molar mass. A value given as a limit tells only on which side of the number the result lay.

For `N.N.O=C([O-])C1(C(=O)[O-])CCC1.[Pt+2]` [Carboplatin, carboplatin], the IC50 values was determined as 15.1 ± 0.36 µg/mL in the assay with SKOV-3 cells (24 h treatment); 10.5 ± 0.5 µg/mL in the assay with SKOV-3 cells (48 h treatment); 7.2 ± 0.25 µg/mL in the assay on SKOV-3 cells (72 h treatment); 45.6 ± 0.57 µg/mL with T1074 cells (24 h treatment); 25.8 ± 0.28 µg/mL in the assay on T1074 cells (48 h treatment); 10.8 ± 0.7 µg/mL in the assay on T1074 cells (72 h treatment).
As usually defined, the IC50 is the point on the concentration scale where inhibition reaches its midpoint. For the molecule `CC(=O)O[C@H]1C(=O)[C@@]2(C)[C@H]([C@H](OC(=O)c3ccccc3)[C@]3(O)C[C@H](OC(=O)[C@H](O)[C@@H](NC(=O)c4ccccc4)c4ccccc4)C(C)=C1C3(C)C)[C@]1(OC(C)=O)CO[C@@H]1C[C@@H]2O` [Paclitaxel, paclitaxel], the half-maximal inhibitory concentration (IC50) is 4.6 ± 0.28 µg/mL (≈ 5.39 µM) with SKOV-3 cells (SK-OV-3, 24 h, 24 h treatment); 2.5 ± 0.2 µg/mL (≈ 2.93 µM) in the assay on SKOV-3 cells (SK-OV-3, 48 h, 48 h treatment); 0.8 ± 0.2 µg/mL (≈ 0.937 µM) in the assay on SKOV-3 cells (SK-OV-3, 72 h, 72 h treatment); over 50 µg/mL with T1074 cells (24 h treatment); 49.3 ± 0.76 µg/mL (≈ 57.7 µM) in the assay with T1074 cells (48 h treatment); 30.5 ± 0.5 µg/mL (≈ 35.7 µM) with T1074 cells (72 h treatment).
